Read-outs that look alike come from different tables or passages of the source.
Legend:
[1] = target: T1, Human MIF tautomerase activity (HPP) (Homo sapiens, UniProt P14174); assay: HPP tautomerase assay; assay type: biochemical; settings: for Emax: read-out: HPP Max. Inhib.
T1 construct: made in house
T1 sequence (P14174 2-115 limits assumed): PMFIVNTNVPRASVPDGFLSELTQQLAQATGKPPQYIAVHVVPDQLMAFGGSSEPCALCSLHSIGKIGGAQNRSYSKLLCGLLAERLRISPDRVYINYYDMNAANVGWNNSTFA
Experimental: The HPP assay used was adapted to the microtiter plate format. […] Dilutions of the enzyme were prepared in 50 mM sodium phosphate buffer, 1 mM EDTA, pH 6.5. HPP was obtained from Aldrich. A stock solution of 60 mM HPP in ethanol is prepared and kept for maximally 4 hours on ice. The working solution (600 μM) of the substrate was prepared by diluting an aliquot of the stock solution with 50 mM sodium phosphate buffer, 1 mM EDTA, pH 6.5. […] Inhibitor and enzyme solutions were pipetted manually using an Eppendorf 12-channel pipette. Addition of substrate to start the reaction was performed with an Igel 96 pipetting station (OpalJena, Jena, Germany), which allows simultaneous addition of fluid to all 96 wells of the plates. Optical density (OD) was determined using a SPECTRAmax 250 reader (Molecular Devices). The reader was operated with the SoftmaxPro 2.6.1 software. Assay: Three wells of the microtiter plates were filled with buffer only, to allow for blanking. […] The last step was performed using the 96-channel pipetting device. The plate was then immediately (i.e. within a few seconds) transferred manually to the SPECTRAmax 250 reader and the optical density was determined (310 nm). From the data obtained, IC50 values were calculated using Excel® and XLfit® software.

[2] = target: T2, MIF-CD74 binding (biotinylated recombinant human MIF / immobilized CD74 ectodomain) (Homo sapiens, UniProt P14174); assay: MIF-CD74 binding (capture) assay; settings: for Capture % Max. Inhib.: Table 3, benzothiazolones, capture assay; for IC50: Table 1, benzooxazolones B, inhibition of MIF-CD74 binding
T2 sequence (P14174 2-115 limits assumed): T1 sequence (P14174 2-115 limits assumed)
Experimental: This allows measurement of the inhibition or enhancement of the binding of MIF to its receptor induced by an addend.
Incubate at 4° C. overnight. Wash the plate 4 times with 250 μl/well TTBS and add 100 μl/well of superblock (Pierce, Ill.). Incubate at 4° C. overnight. Remove the superblock and add mixture of compound and biotin-labeled recombinant human MIF incubated at 4° C. overnight. (Each compound was pre-incubated at various concentrations with 2 ng/μl 0.2 μM biotin-MIF for 2 hours at room temperature in the dark). After washing the plate 4 times with 250 μl/well TTBS, 60 μl/well of Strepavidin-AP (R&D Systems) was added and incubated for 1 hr at room temperature in the dark. Wells were then washed as before and 60 μl/well of PNPP (Sigma) was added, allowing the color to develop in the dark at room temperature and then read at OD405 nm.

[3] = tested on: MIF-dependent ERK1/2 phosphorylation; assay: MIF-dependent signal transduction in cells (ERK1/2 phosphorylation); assay type: cell-based; settings: compared to isoxazoline-1
Experimental: Two additional assays were performed on compounds according to the present invention. In the first, MIF-dependent signal transduction in cells as evidenced by a reduction in ERK1/2 phosphorylation and its inhibitory action is compared to the known small molecule MIF antagonist, isoxazoline-1 following the assay reported in Leng L., Metz C, Fang Y, Xu J, Donnelly S, Baugh J, Delonery T, Chen Y, Mitchell R A, and Bucala R. 2003. MIF Signal Transduction Initiated by Binding to CD74. J Exp Med 197, 1467-1476.

ovarian cancer cell line = assay: Growth inhibition of an ovarian cancer cell line; assay type: cell-based
From the text: KSP inhibitor ARRY-520 is used as a substitute for Paclitaxel in Type I ovarian cancer cells. J Transl Med. 7:63.

[4] = Table 1, MIF tautomerase activity, HPP substrate

c1ccc(Cn2c(-c3cscn3)nc3ccccc32)cc1 [Compound 17, 4-(1-benzyl-1H-benzo[d]imidazol-2-yl)thiazole] showed an Emax ([1]; Table 2, other series) of 40%.
With COc1ccccc1-n1sc2ccc(Cl)cc2c1=O [Compound 31] the “Capture % Max. Inhib.” value [2] was 7%.
COc1ccccc1Cn1c(=O)oc2ccc(F)cc21 [Compound 10] gave an Emax ([1]; Table 1, maximal inhibition of HPP tautomerase activity) of 17%.
In the case of O=C(c1cc2ccccc2o1)c1cc2ccccc2o1 [Compound 20, bisbenzofuran-2-yl methanone], the IC50 ([1]; Table 2, other series) is reported as 510 µM.
With COc1cccc(Cn2c(=O)oc3ccc(CO)cc32)c1 [Compound 4, 5-hydroxymethyl-3-(3-methoxy-benzyl)-3H-benzooxazol-2-one] the IC50 [2] was 500 µM.
With O=c1c2ccc(F)cc2sn1-c1ccc(Cl)cc1 [Compound 25] the “activity in the capture assay (MIF-CD74 binding), in words” value (“activity in the capture assay” for short) [2] was “agonist behavior”.
Cc1ccc2oc(=O)n(Cc3cccc(O)c3)c2c1 [Compound 098] was tested, and the “inhibition of MIF-dependent signal transduction (reduction in ERK1/2 phosphorylation), in words” value [3] was “significant inhibitory action” and the “inhibition of growth of an ovarian cancer cell line, in words” value (ovarian cancer cell line) was “significant inhibitory action”.
O=c1c2cc(F)ccc2sn1-c1cccc(O)c1 [Compound 32] was tested, and the “Capture % Max. Inhib.” value [2] was 13%.
O=c1c2ccc(Br)cc2sn1-c1ccc(Cl)cc1 [Compound 36] was tested, and the “Capture % Max. Inhib.” value [2] was 10%.
In the case of O=c1c2cc(F)ccc2sn1-c1ccc(Cl)cc1 [Compound 30], the “Capture % Max. Inhib.” value [2] is reported as 7% and the IC50 ([1]; Table 3, benzothiazolones) is reported as 2.8 µM.
O=c1oc2cc(O)ccc2n1Cc1ccccc1 [Compound 14] was tested, and the IC50 [2] was over 1000 µM.
CC(=O)OCc1cccc(-n2sc3cc(F)ccc3c2=O)c1 [Compound 33] was tested, and the “Capture % Max. Inhib.” value [2] was 12%.
N#Cc1ccc2c(=O)n(-c3ccc(Cl)cc3)sc2c1 [Compound 37] was tested, and the “Capture % Max. Inhib.” value [2] was 16%.
O=c1c2cc([N+](=O)[O-])ccc2sn1-c1ccc(Cl)cc1 [Compound 34] was tested, and the “Capture % Max. Inhib.” value [2] was 11%.
For O=c1c2ccc(F)cc2sn1-c1cccc(CO)c1 [Compound 29], the “Capture % Max. Inhib.” value [2] was 8% and the IC50 ([1]; Table 3, benzothiazolones) was 4.8 µM.
With N#Cc1nc2ccccc2n1Cc1ccccc1 [Compound 18, 1-Benzyl-1H-benzoimidazole-2-carbonitrile] the Emax ([1]; Table 2, other series) was 36%.
COc1cccc(Cn2c(=O)oc3ccc(C)cc32)c1 [Compound 5] gave an IC50 [2] of 300 µM.
Ic1cc(-c2ccccc2)ncn1 [Compound 4-IPP, 4-iodo-6-phenylpyrimidine, reference compound] was tested, and the “activity in the capture assay” value [2] was “inactive” and the IC50 [2] was over 10000 µM.
With Cc1ccc2oc(=O)n(Cc3ccccc3)c2c1 [Compound 1] the IC50 [1, 4] was 0.5 µM.
With COC(=O)CC1CC(c2ccc(O)cc2)=NO1 (centres unmarked) [ISO-1, reference compound] the “activity in the capture assay” value [2] was “inactive” and the “activity in the HPP tautomerase assay, in words” value [1] was “inactive”.
O=c1c2cc(C(F)(F)F)ccc2sn1-c1ccc(Cl)cc1 [Compound 35] was tested, and the “Capture % Max. Inhib.” value [2] was 12% and the IC50 ([1]; Table 3, benzothiazolones) was 8.5 µM.
O=c1oc2ccc(F)cc2n1Cc1ccccc1 [Compound 8] showed an IC50 [1, 4] of 1 µM.
Molecule COc1cccc(Cn2c(=O)oc3ccc(OC)cc32)c1 [Compound 3, 5-methoxy-3-(3-methoxy-benzyl)-3H-benzooxazol-2-one] has an IC50 [2] of 200 µM.
